Measured values: US20210022305A1, “A HUMULUS PLANT VARIANT AND EXTRACTS THEREOF” (BOMI LLC, priority 2018, published 2021)
Values joined by “and” are separate entries in the source; they are usually repeats but may differ in a detail not shown here. Equal entries are not always repeated.

Tested on: CB2
Assay: CBD bioactivity test (monoclonal antibody test based on CB2 affinity)
Format: binding
Conditions: CBD samples isolated from ImmunAG

C=C(C)C1CCC(C)=CC1c1c(O)cc(CCCCC)cc1O (stereo not drawn) [CBD, 2-(6-isopropenyl-3-methyl-2-cyclohexen-l-yl)-5-pentyl-1,3-benzenediol]
Bioactivity: 0.80 and 0.90 and 0.95
